These results are taken from patent US20150368220A1, “PHARMACEUTICAL COMPOSITION FOR TREATING OR PREVENTING STRESS URINARY INCONTINENCE OR MIXED URINARY INCONTINENCE, AND METHOD FOR SCREENING COMPOUND COMPRISED IN SAID PHARMACEUTICAL COMPOSITION” (Astellas Pharma Inc., priority 2012, published 2015).

One test has as its system SD female rat. The test can be described thus: Effect on urethral pressure, perfusion method (Example 4). Format: in vivo. On the procedure:
An SD female rat was anesthetized with urethane and allowed to undergo laparotomy, the bladder dome was then incised, and a catheter having a barb at the tip was inserted toward the urethra from the bladder, and ligated and fixed such that the tip of the catheter was positioned around the proximal urethra. Physiological saline was injected at a predetermined flow rate into the urethra through the catheter and the urethral pressure was measured with a pressure transducer. After the urethral pressure was stabilized, compounds dissolved in physiological saline, or physiological saline containing 5% N,N-dimethylacetamide(DMA) and 0.5% Cremophor were intravenously administered at a dose of 1 μg/kg, 10 μg/kg, 100 μg/kg, or 1000 μg/kg and a change in the urethral pressure was measured.

The target of test [1] is T1, human MT1 receptor (Homo sapiens, UniProt P48039).
T1 construct: expressed in transfected cells; vector pCDNA3.1/Zeo; co-transfected with a Gq/i chimeric G protein expression vector
T1 sequence (P48039 whole entry): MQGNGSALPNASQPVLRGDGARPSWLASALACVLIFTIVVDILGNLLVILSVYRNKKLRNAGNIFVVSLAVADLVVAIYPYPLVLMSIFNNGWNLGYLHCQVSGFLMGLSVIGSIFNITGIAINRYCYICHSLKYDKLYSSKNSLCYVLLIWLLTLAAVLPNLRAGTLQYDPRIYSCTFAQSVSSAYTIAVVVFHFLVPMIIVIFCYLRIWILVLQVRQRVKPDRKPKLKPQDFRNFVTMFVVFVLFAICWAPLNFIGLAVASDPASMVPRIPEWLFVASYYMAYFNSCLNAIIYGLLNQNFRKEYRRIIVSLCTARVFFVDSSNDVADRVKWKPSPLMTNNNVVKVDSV
The test can be described thus: Intracellular Ca2+ concentration by FLIPR in human MT1 receptor expressing cells (Example 2). Format: cell-based. To be noted: human MT1 receptor expressing HEK293 cells, 10^-5 M to 10^-12 M, FIGS. 2 and 4. On the procedure: (§1) The expression vectors for human MT1 and MT2 receptors were introduced into HEK293 cells, together with a Gq/i chimeric G protein expression vector, respectively. The incorporation was carried out in accordance with instructions, using a Lipofectoamine (registered trademark) 2000 Reagent (Invitrogen Inc.). Using Zeocin and hygromycin as a resistant agent, the cells were cultured for 15 days in the presence of 0.02 mg/mL and 0.05 mg/mL of the agents, respectively, thereby acquiring a drug-resistant clone.
(§2) The respective stably expressing cells were dispensed into 96 wells in a poly-D-lysine-coated plate (Falcon) the day before the experiment to give 40,000 cells/well, and cultured in a DMEM (Invitrogen Inc.) medium containing 10% FBS at 37° C. and 5% CO2 overnight. The medium was replaced with a loading buffer (a washing solution containing 4 μM Fluo-4AM (Dojindo Co.) (Hank's balanced salt solution (HBSS), 20 mM HEPES-NaOH, 2.5 mM probenecid)) and cultured at 37° C. and 5% CO2 for 1 hour.

Test [2] has as its target T2, human MT2 receptor (Homo sapiens, UniProt P49286).
T2 construct: expressed in transfected cells; vector pCDNA3.1/Zeo; co-transfected with a Gq/i chimeric G protein expression vector
T2 sequence (P49286 1-362): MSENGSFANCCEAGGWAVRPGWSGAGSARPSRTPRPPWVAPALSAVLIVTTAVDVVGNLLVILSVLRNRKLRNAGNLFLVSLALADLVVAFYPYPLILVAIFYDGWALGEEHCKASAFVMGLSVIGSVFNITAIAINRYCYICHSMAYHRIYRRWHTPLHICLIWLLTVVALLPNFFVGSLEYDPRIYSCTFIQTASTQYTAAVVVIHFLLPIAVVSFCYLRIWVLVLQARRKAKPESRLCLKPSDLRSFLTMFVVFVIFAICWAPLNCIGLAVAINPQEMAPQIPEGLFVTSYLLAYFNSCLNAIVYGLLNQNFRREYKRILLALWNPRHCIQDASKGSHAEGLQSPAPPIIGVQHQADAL
The test can be described thus: Intracellular Ca2+ concentration by FLIPR in human MT2 receptor expressing cells (Example 2). Format: cell-based. To be noted: human MT2 receptor expressing HEK293 cells, 10^-5 M to 10^-12 M, FIGS. 3 and 5. The method, then:
as §1, §2

In test [3] the test system is isolated urethra. The test can be described thus: Urethra contracting action using isolated urethra (Example 3). To be noted: isolated urethra of SD female rat, cumulative 10^-5 M to 10^-12 M, FIGS. 6 and 7. On the procedure: The urethra was isolated from an SD female rat having a body weight of 100 g to 500 g. The isolated urethra was incised vertically and then made into strip-shaped specimens having a width of about 3 mm. The specimens were suspended in a 10 mL tissue bus filled with a Krebs—Henseleit solution (pH 7.4) in the circular muscle direction. The Krebs—Henseleit solution was aerated at 95% O2 and 5% CO2, and warmed at 37° C. The resting tension was set to 0.5 g and the isometric contraction was recorded. After the resting tension was stabilized, a 10 μM phenylephrine solution was added thereto to cause contraction.

Test [4] concerns the target T1, human MT1 receptor. Briefly: Effect of luzindole on ramelteon-induced intracellular Ca2+ increase in human MT1 receptor expressing cells (Example 5). Format: cell-based. The settings on record: for intracellular Ca^2+ concentration increasing action: action by 10^-6 M ramelteon = 100%. On the procedure:
(§3) The respective stably expressing cells were dispensed into 96 wells in a poly-D-lysine-coated plate (Falcon) the day before the experiment to give 40,000 cells/well, and cultured in a DMEM (Invitrogen Inc.) medium containing 10% FBS at 37° C. and 5% CO2 overnight. The medium was replaced with a loading buffer (a washing solution containing 4 μM Fluo-4AM (Dojindo Co.) (Hank's balanced salt solution (HBSS), 20 mM HEPES-NaOH, 2.5 mM probenecid)) and cultured at 37° C. and 5% CO2 for 1 hour. Thereafter, the cells were washed with a plate washer (EL×405, BIO-TEK Instrument Inc.) having a washing solution set therein, and set in an intracellular Ca concentration measuring system (FLIPR (registered trademark), Molecular Device Inc.). Luzindole was preliminarily dissolved in a washing solution, diluted to a final concentration of 10^−5 M to 10^−7 M, and left to stand at room temperature for 5 minutes. Ramelteon was preliminarily dissolved in a washing solution and diluted to a final concentration of 10^−5 M to 10^−11 M, the resultant was set in an FLIPR (registered trademark) device together with the cells after leaving to stand for 5 minutes after the addition of luzindole, the cells were added to the device, and a change in the intracellular Ca^2+ concentration at that time was measured.

Test [5] concerns the target T2, human MT2 receptor. Briefly: Effect of luzindole on ramelteon-induced intracellular Ca2+ increase in human MT2 receptor expressing cells (Example 5). Format: cell-based. The settings on record: for intracellular Ca^2+ concentration increasing action: action by 10^-6 M ramelteon = 100%. The method, then: as §3
Test [6] concerns isolated urethra. The test can be described thus: Effect of luzindole on urethra contracting action of ramelteon in isolated urethra (Example 5). More on the design: species or system rat. To be noted: for isolated urethra contracting action: contraction by 1 μM ramelteon at first time = 100%. The method, then:
The urethra was isolated from an SD female rat having a body weight of 100 g to 500 g. The isolated urethra was incised vertically and then made into strip-shaped specimens having a width of about 3 mm. The specimens were suspended in a 10 mL tissue bus filled with a Krebs-Henseleit solution (pH 7.4) in the circular muscle direction or the longitudinal muscle direction. […] The resting tension was set to 0.5 g and the isometric contraction was recorded. After the resting tension was stabilized, a 10 μM phenylephrine solution was added thereto to cause contraction. After washing and stabilizing, the compound (ramelteon) was cumulatively added to a final concentration of 10^−5 M to 10^−12 M and the contraction response was measured. After washing and stabilizing, luzindole was added, after 20 minutes, ramelteon was cumulatively added again, and the contraction response was measured.

Where [7] appears, read: intravenous, anesthetized SD female rat, FIGS. 10 to 14.
Setting [8] is: final concentration of ramelteon 10^-5 M.

The structures appear in SMILES notation.

In the case of `COc1ccc(OC)c(C(O)CN)c1` (stereo not shown) [ST-1059], in the test on SD female rat (rat, dose 0.01 mg/kg), the “urethral pressure increasing action” value is 4.9±1.1 mmHg.
In the case of `COc1cc2c([C@@H](C)CNC(C)=O)c[nH]c2cc1Cl` [TIK-301, N-[(2R)-2-(6-chloro-5-methoxy-1H-indol-3-yl)propyl]acetamide], the “intracellular Ca^2+ concentration (melatonin receptor activating action)” value at human MT1 receptor [1] and on human MT2 receptor [2] was “increased” in each case. In the test on isolated urethra [3], the urethra contracting action result is given as “contracted the isolated urethra”. Also, the “urethral pressure increasing action” value in the test with SD female rat (setting [7]) is “increased the urethral pressure”.
For `COc1ccc2cccc(CCNC(C)=O)c2c1` [agomelatine, N-[2-(7-methoxynaphth-1-yl)ethyl]acetamide], the “intracellular Ca^2+ concentration (melatonin receptor activating action)” value at human MT1 receptor [1] and at human MT2 receptor [2] was “increased” each time. Besides, the urethra contracting action entry in the test on isolated urethra [3] is reported as “contracted the isolated urethra”. Also, in the test on SD female rat (setting [7]), the “urethral pressure increasing action” value is recorded as “increased the urethral pressure”.
`CC(=O)NCCc1c(Cc2ccccc2)[nH]c2ccccc12` [luzindole, N-[2-[2-(phenylmethyl)-1H-indol-3-yl]ethyl]acetamide]: the “inhibition of the increase in intracellular Ca^2+ concentration by ramelteon” value at human MT1 receptor [4] (MT1 receptor expressing cells, FIG. 15) is listed as “inhibited”; against human MT2 receptor [5] (MT2 receptor expressing cells, FIG. 16), “inhibited”. Also, the “intracellular Ca^2+ concentration increasing action” value on human MT1 receptor [4] (MT1 receptor expressing cells, ramelteon 10^-5 M with 10^-5 M luzindole) turned out to be 94%; on human MT1 receptor [4] (MT1 receptor expressing cells, ramelteon 10^-5 M with 10^-6 M luzindole) it was 97%; at human MT1 receptor [4] (MT1 receptor expressing cells, ramelteon 10^-5 M with 10^-7 M luzindole) it was 100%; on human MT2 receptor [5] (MT2 receptor expressing cells, ramelteon 10^-5 M with 10^-5 M luzindole), 52%; at human MT2 receptor [5] (MT2 receptor expressing cells, ramelteon 10^-5 M with 10^-6 M luzindole) it was 60%; on human MT2 receptor [5] (MT2 receptor expressing cells, ramelteon 10^-5 M with 10^-7 M luzindole) it was 62%. Further, the “inhibiting action on the MT1 receptor” value on human MT1 receptor [4] (setting [8]) is on record as “substantially did not exhibit an inhibiting action”. Besides, the “inhibiting action, MT2 versus MT1 receptor expressing cells” value against human MT2 receptor [5] (comparison of MT2 and MT1 receptor expressing cells) is given as “stronger in the MT2 receptor expressing cells than in the MT1 receptor expressing cells”. The “inhibiting action on isolated urethra contracting action” value in the test on isolated urethra [6] (setting [8]) is reported as “substantially did not exhibit an inhibiting action”. Also, the “isolated urethra contracting action” value with isolated urethra [6] (ramelteon 10^-5 M with 10^-5 M luzindole) turned out to be 78%; in the test with isolated urethra [6] (ramelteon 10^-5 M with 10^-6 M luzindole), 94%; in the test with isolated urethra [6] (ramelteon 10^-5 M with 10^-7 M luzindole), 101%. Further, the “inhibition of isolated urethra contracting action by ramelteon” value in the test on isolated urethra [6] (treatment with luzindole 10^-7 M to 10^-5 M, FIG. 17) is “inhibited in a concentration-dependent manner”.
`CCC(=O)NC[C@@H]1C[C@H]1c1cccc2c1CCO2` [tasimelteon, (−)-(trans)-N-{[2-(2,3-dihydrobenzofuran-4-yl)cyclopropan-l-yl]methyl}propanamide]: the “intracellular Ca^2+ concentration (melatonin receptor activating action)” value at human MT1 receptor [1] and at human MT2 receptor [2] was “increased” each time. The urethra contracting action result in the test with isolated urethra [3] is given as “contracted the isolated urethra”. Further, the “urethral pressure increasing action” value with SD female rat (setting [7]) is reported as “increased the urethral pressure”.
